Consider twelve molecules from PubChem BioAssay (NCI).

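All cell lines were grown in 96-well plates and treated with compound for 48 hours. The concentration for full growth arrest is given as TGI.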 A value given as a limit tells only on which side of the number the result lay.

Experiment in all cases: NCI tumour cell line growth inhibition, 48 h
For assay [1], the system named is 786-0 renal.
Assay [2] relates to SK-MEL-28 melanoma.
The test system of assay [3] is UACC-62 melanoma.
Assay [4] has as its system CCRF-CEM leukemia.
In assay [5] the test system is HL-60(TB) leukemia.
For assay [6], the system named is NCI-H226 lung.
The test system of assay [7] is T-47D breast.
For assay [8], the system named is SK-OV-3 ovarian.
For assay [9], the system named is TK-10 renal.
The test system of assay [10] is MDA-N.
Assay [11] has as its system COLO 205 colon.

Take `COC1=CC(=O)N(C)C(O)C1(C#N)OC1OC(CO)C(O)C(O)C1O` (configuration not stated): the TGI was greater than 100 µM in assay [1]; greater than 100 µM in assay [2]; greater than 100 µM in assay [3]; greater than 10 µM in assay [4]; greater than 100 µM in assay [5]; greater than 100 µM in assay [6]. Further, the TGI in [7], in assay [8], in assay [9], in assay [10] and in assay [11] was greater than 100 µM in each case.

As for `CC1CCC2(OC1)OC1C(O)C3C4CCC5CC(OC6OC(CO)C(OC7OC(CO)C(O)C(OC8OCC(O)C(O)C8O)C7OC7OC(CO)C(O)C(OC8OC(CO)C(O)C(O)C8O)C7O)C(O)C6O)C(O)CC5(C)C4CCC3(C)C1C2C` (configuration not stated), the TGI in assay [1] is 2.96 µM; in assay [2], greater than 100 µM; in [3], 14.1 µM; in assay [4], 10.5 µM; in assay [5], 7.21 µM; in assay [6], 3.33 µM. The TGI in [7] was determined as 10.4 µM; in assay [8] it was 5.57 µM; in assay [9], 6.1 µM; in assay [10], 7.94 µM; in assay [11], 3.6 µM.

As for `N#Cc1c(N)nc2c3c1NC(=O)C(C(N)=O)C3c1ccccc1O2` (configuration not stated), the TGI in assay [1], in assay [2], in assay [3], in assay [4], in [5] and in assay [6] was greater than 100 µM throughout. Moreover, the TGI in assay [7], in assay [8], in assay [9], in assay [10] and in [11] was greater than 100 µM in each case.

In the case of `OC(NN=C1CCCC1)(C(F)(F)Cl)C(F)(F)Cl`, the TGI in assay [1], in assay [2], in assay [3], in [4], in assay [5] and in assay [6] was greater than 10 µM throughout. The TGI in [7], in assay [8], in assay [9], in assay [10] and in [11] was greater than 10 µM in each case.

As to `Cc1ccccc1NC(=O)CC(=O)NNC(Sc1ccccc1)c1cc(N=Nc2ccc(Br)cc2)ccc1O` (configuration not stated), the TGI in [1] is greater than 10 µM; in [2], greater than 10 µM; in assay [3] it was 8.65 µM; in [4], greater than 10 µM; in [5], 0.907 µM; in assay [6], greater than 10 µM. Besides, the TGI in [7], in assay [8], in [9], in assay [10] and in assay [11] was greater than 10 µM in each case.

Regarding `O=C1NC(N2CCOCC2)=N/C1=C\c1ccc(O)cc1`, the TGI in assay [1], in assay [2], in assay [3], in assay [4], in [5] and in assay [6] was greater than 100 µM throughout. Further, the TGI in assay [7], in [8], in assay [9], in assay [10] and in assay [11] was greater than 100 µM each time.

In the case of `Cc1cc(-c2nc3cccc(O)c3s2)ccc1N`, the TGI is greater than 100 µM in assay [1]; greater than 100 µM in [2]; 33.1 µM in assay [3]; 65.2 µM in assay [4]; 47.2 µM in [5]; greater than 100 µM in [6]. Further, the TGI is greater than 100 µM in [7]; greater than 100 µM in assay [8]; greater than 100 µM in assay [9]; greater than 100 µM in assay [10]; 58.1 µM in [11].

Turning to `CC(C)=CCC[C@@H](C)C1=C(O)C(Nc2ccccc2I)=C(C)C(=O)C1=O`, the TGI in assay [1] is greater than 58.7 µM; in assay [2], greater than 75 µM; in assay [3], 31.3 µM; in [4] it was greater than 20.9 µM; in [5] it was 4.39 µM; in [6], 18.4 µM. Moreover, the TGI was 47.5 µM in [7]; 61.5 µM in assay [8]; greater than 75 µM in assay [9]; greater than 75 µM in [10]; 33.1 µM in assay [11].

As for `CCSC1=CC2(O)N(CCc3ccc(OC)c(OC)c3)C(=O)CC2(C(=O)OC)CC1=O` (configuration not stated), the TGI in [1] was 34 µM; in [2], greater than 100 µM; in assay [3], 39.8 µM; in [4] it was greater than 100 µM; in assay [5], 73.5 µM; in [6], greater than 100 µM. In addition, the TGI in [7] was 48.5 µM; in assay [8], greater than 100 µM; in [9] it was 37.5 µM; in [10], greater than 100 µM; in assay [11] it was greater than 100 µM.

`COc1cccc(C2c3cc4c(cc3OC(Nc3ccccc3)C2C)OCO4)c1O` (configuration not stated): the TGI in [1] is 32.1 µM; in [2], 27 µM; in [3] it was 29 µM; in assay [4], 16.6 µM; in assay [5], greater than 23.9 µM; in assay [6], 33.2 µM. Also, the TGI is greater than 75.4 µM in [7]; greater than 71.6 µM in assay [8]; 64.2 µM in assay [9]; 6.98 µM in [10]; greater than 35.6 µM in [11].

For `CCN(CC)C(=O)CCN1CC1`, the TGI in assay [1], in assay [2], in [3], in assay [4], in assay [5] and in assay [6] was greater than 10 µM in each case. In addition, the TGI in assay [7], in [8], in assay [9], in [10] and in assay [11] was greater than 10 µM each time.

For `COc1cc(N(CCC#N)CCC#N)ccc1/C=N\NC(=O)c1ccc(C)cc1`, the TGI in assay [1], in assay [2], in assay [3], in [4], in assay [5] and in [6] was greater than 100 µM in each case. Moreover, the TGI in assay [7], in assay [8], in assay [9], in assay [10] and in assay [11] was greater than 100 µM in each case.
